The record followed here is US20050080062A1, “Breast cancer treatment regimen” (priority 2003, published 2005).

The data set concerns primary breast cancer (hormone receptor positive or unknown). Type of data set: in vivo, postmenopausal women. As for the experimental part:
The study was a phase III randomized double-blind placebo-controlled study of letrozole in postmenopausal women with primary breast cancer completing five years of adjuvant tamoxifen. Patients were allocated to receive either letrozole 2.5 mg or placebo once daily by mouth for five years. Stratification factors at randomization were tumor receptor status (positive, unknown), lymph node status at diagnosis (negative, positive or unknown) and prior adjuvant chemotherapy (yes, no). The primary objective was disease-free survival (DFS). Secondary endpoints included overall survival (OS)(all cause mortality), contralateral breast cancer occurrence, quality of life and long term clinical and laboratory safety with special attention paid to cardiovascular morbidity and mortality and bone fractures. Adverse events were assessed by the NCI Common Toxicity Criteria version 2.0. Quality of life was assessed using the SF-36 and Menopause-Specific Quality of Life questionnaires. Companion studies assessed lipid profiles and changes in bone density.
Premenopausal women who were <50 years at the start of treatment with tamoxifen but who became amenorrheic during the course of adjuvant chemotherapy or during their treatment with tamoxifen and who remained so throughout the ensuing years of tamoxifen treatment and women with LH/FSH levels within post-menopausal limits were also eligible. Other eligibility included: histologically confirmed invasive breast cancer; tumor receptor positive or unknown (ER and/or PgR positive defined as a tumour receptor content of ≧10 fmol/mg protein, or receptor positive by ERICA or PgRICA); tamoxifen discontinued <3 months prior to enrolment; ECOG performance status 0,1 or 2 and a life expectancy of >5 years. […] Ineligibility included: concurrent use of investigational drugs; prior or concurrent malignancy other than skin cancer or carcinoma in situ of the cervix.
Concomitant medications prohibiting enrolment included: systemic hormone replacement therapy or SERMS (selective estrogen receptor modulators). Intermittent use of vaginal estrogens was permitted.
All study participants were randomised. Study medication began within 5 working days of randomisation. Clinical evaluation, routine blood work, toxicity evaluation and mammography (annually only) occurred six monthly in year one and annually thereafter. Serious toxicities and deaths were reported within 24 hours. Treatment was discontinued for: serious intercurrent illness, unacceptable toxicity, disease recurrence and patient request. SF-36 and Menqol questionnaires were completed by a subset of patients at each visit. Fasting lipid samples and bone mineral density evaluations occurred in sub-sets of participants on the bone and lipid companion studies. Recurrence of disease was defined histologically, cytologically or by clinical and/or radiologic suspicion and dated by the first time of detection. Management of recurrent cancer was at the discretion of the treating physician. Patients developing any second malignancy other than non-melanoma skin cancer or carcinoma in-situ of the cervix had to discontinue study therapy.
Interim analyses and other decisions regarding early termination of the study were referred to an independent Data and Safety Monitoring Committee (DSMC) consisting of clinicians, patient representatives and statisticians who reviewed the study twice a year.
Disease free survival, defined as the time from randomization to the time of recurrence of the primary disease (in the breast, chest wall, nodal or metastatic sites) or development of contralateral breast cancer, was the primary endpoint of the study. The sample size calculation assumed a 4 year disease free survival of 88% for patients on the placebo arm and a hazard ratio of 1.28, which represents 2.5% improvement in 4 year disease free survival from 88% to 90.5%. […]

The mark [1] stands for this setting: among 207 events at first analysis.

Structures are written as SMILES.

In the case of `N#Cc1ccc(C(c2ccc(C#N)cc2)n2cncn2)cc1` [letrozole], the “hazard ratio of patients on placebo versus those on letrozole for OS” value (95% confidence interval from 0.85 to 2.17, stratified two sided log-rank p 0.20) came to 1.36. For the same molecule, the “hazard ratio of placebo to letrozole for DFS” value (95% confidence interval from 1.33 to 2.34, stratified two sided log-rank p 0.000077) is reported as 1.76. The “effect on breast cancer recurrence and new primary tumors (in words)” value (after five years of treatment with tamoxifen) is “markedly reduced breast cancer recurrance and new primary tumors”. Also, under setting [1], the “women who developed both contralateral breast cancer and metastatic disease” value is reported as 2 women; the “women who developed contralateral breast cancer only” value came to 14 women; the “women with metastatic disease recurrence only” value was 59 women. For the same molecule, the “patients coming off study because of progressive disease” value (at the time of the first analysis) is recorded as 44 patients. The “patients coming off study because of toxicity” value (female, human, in vivo) is recorded as 115 patients. Besides, the “toxicity profile (in words)” value (in vivo) is “very favorable toxicity profile”. Besides, where the note is “letrozole 2.5 mg once daily by mouth after five years of adjuvant tamoxifen, first interim analysis, 95% confidence interval from 90% to 95%”, the “4 year disease free survival (DFS)” value was found to be 93%. In addition, the “4 year overall survival (OS)” value (letrozole 2.5 mg once daily, first interim analysis, 95% confidence interval from 94% to 98%) was determined as 96%. The “patients who had died at the time of data cut-off” value (of 72 deaths in total, 2593 randomized to letrozole) is on record as 30 patients.
